Test results taken from US20250144127A1, “LONG-CHAIN COMPOUND AND USE THEREOF” (Burgeon Therapeutics Co., Ltd., priority 2021, published 2025).

Assays:
[1] = target: T1, Human-derived ACLY protein (Homo sapiens, UniProt P53396); test: ACLY citrate cleavage enzyme inhibition, ADP-Glo assay; format: biochemical; conditions: 25 nM enzyme, 30 min, 37° C., read-out: IC50 for inhibition of ACLY enzyme activity (mean ± SD)
T1 construct: purchased Beijing Yiqiao Shenzhou Technology Co., Ltd 11769-H07B
T1 sequence (P53396 1-1101): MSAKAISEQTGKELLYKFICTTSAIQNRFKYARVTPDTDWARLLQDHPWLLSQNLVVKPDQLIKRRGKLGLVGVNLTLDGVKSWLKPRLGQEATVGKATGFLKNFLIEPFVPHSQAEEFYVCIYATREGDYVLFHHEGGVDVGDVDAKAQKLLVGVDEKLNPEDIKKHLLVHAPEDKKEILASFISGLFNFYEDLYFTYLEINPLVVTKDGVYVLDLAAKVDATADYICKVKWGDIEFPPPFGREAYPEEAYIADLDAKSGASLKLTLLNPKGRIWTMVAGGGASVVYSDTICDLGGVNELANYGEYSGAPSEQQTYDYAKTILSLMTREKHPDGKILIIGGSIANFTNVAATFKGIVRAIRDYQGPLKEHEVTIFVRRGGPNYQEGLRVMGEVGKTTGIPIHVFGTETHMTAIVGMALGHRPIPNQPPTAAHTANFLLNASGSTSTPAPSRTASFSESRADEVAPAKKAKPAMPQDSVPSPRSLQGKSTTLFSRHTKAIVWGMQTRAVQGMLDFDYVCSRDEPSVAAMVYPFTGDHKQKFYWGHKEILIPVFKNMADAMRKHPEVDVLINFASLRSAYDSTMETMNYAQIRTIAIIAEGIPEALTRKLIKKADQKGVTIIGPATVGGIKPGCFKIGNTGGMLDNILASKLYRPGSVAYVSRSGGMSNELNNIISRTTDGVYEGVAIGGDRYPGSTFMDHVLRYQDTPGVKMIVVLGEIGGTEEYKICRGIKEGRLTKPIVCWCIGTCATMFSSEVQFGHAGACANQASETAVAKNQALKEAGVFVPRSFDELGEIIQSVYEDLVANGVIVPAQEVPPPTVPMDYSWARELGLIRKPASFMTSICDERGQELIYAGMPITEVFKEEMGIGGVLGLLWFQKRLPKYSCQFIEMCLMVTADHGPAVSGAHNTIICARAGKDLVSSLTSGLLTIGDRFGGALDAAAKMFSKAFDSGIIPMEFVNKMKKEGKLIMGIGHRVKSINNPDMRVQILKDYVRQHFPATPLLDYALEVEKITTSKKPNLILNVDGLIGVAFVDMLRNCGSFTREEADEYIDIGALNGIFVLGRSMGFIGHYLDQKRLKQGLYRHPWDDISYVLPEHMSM
Source text: The ACLY-catalyzed citric acid cleavage process requires the consumption of one molecule of ATP to activate citric acid. Based on this reaction principle, the inventors utilized an ADP-Glo assay kit to detect the amount of ATP converted to ADP in response to the catalytic activity of ACLY. After the establishment of the activity measurement system and optimization of the reaction conditions, the inventors evaluated the ACLY inhibitory activity of the obtained novel ACLY small molecule inhibitors.
Activity test protocol: Human-derived ACLY protein was purchased from Beijing Yiqiao Shenzhou Technology Co., Ltd (Item No. 11769-H07B), and ADP-Glo assay kit was purchased from Promega (Item No. V9102). The total volume of the reaction was 5 μL, which consisted of a mixture of three parts: 1 μL of 2% DMSO, 2 μL of the substrate mixture, and 2 μL of the enzyme (final concentration of 25 nM). Then 1 μL of different concentrations of compounds were added for incubation. Reaction conditions: 30 min, 37° C. Then 2.5 μL of ADP Reagent from ADP-Glo Kit was used, mixed well and reacted for 2 h. 5 μL of ADP Detection was added, centrifuged and mixed well. Then the full wavelength value was read from Envision multifunctional plate reader.
Results: Firstly, the cumulative amount of fluorescence intensity of the enzyme in 30 min reaction time (RFU/min) was calculated to represent the initial velocity of the enzyme, and then the ratio of the enzyme's velocity with the addition of compounds (vsample) to the enzyme's velocity without the addition of compounds (vDMSO) was calculated to be the percentage of activity for each concentration group of the samples (Activity rate %), with the formula: % Activity=(V(sample)/(v(DMSO))×100%. The logarithmic value of the concentration was plotted against the activity percentage, and then a non-linear regression was used to calculate the fitted curve. The software GraphPad Prism 8.0 (formula log (inhibitor) vs. response—Variable slope) was used to fit the curve and calculate the IC50 value, and the results are shown in the table below.

[2] = Oral pharmacokinetics in ICR mice; format: in vivo, mouse
Procedure: Dosing regimen: 6 normal ICR mice, male, were divided into 2 groups (n=3), one group was orally given the positive control ETC-1002, and one group was orally given the tested compound A3, both administered at a dose of 30 mg/kg; blood was taken from the eye orbits at different time points before and after the administration of the drug, and the plasma drug concentration was detected.

crab-eating monkeys = test: High-fat, high-sugar, high-cholesterol diet-induced NASH in crab-eating monkeys; format: in vivo, crab-eating monkey; conditions: 20 mg/kg, 1 time/day, 14 weeks, liver puncture
Procedure: Dosing regimen: 18 non-alcoholic steatohepatitis-eating crab monkeys, males, were divided into 2 groups (n=8-10), one group was set up as a model control group, and one group was set up as a drug administration group. The drug (20 mg/kg) was administered at a frequency of 1 time/day for 14 weeks while feeding a high-fat, high-sugar, high-cholesterol diet for 14 weeks.
Indicator tests: The body weights and food intake of the crab-eating monkeys were closely monitored during the administration period. After 14 weeks of compound administration, liver puncture was performed for pathologic analysis of NASH indicators.

[3] = male, mouse, ICR mice, oral, 30 mg/kg, plasma

With `CC(C)(CCCC/C=C/CCCCCC(C)(C)C(=O)O)C(=O)O` [Compound A3] as the compound, how does the IC50 [1] read?
The IC50 was 85.4 ± 9.8 µM.

And the AUC(0-inf) [2, 3]?
Its AUC(0-inf) is 74200 ng·h/mL.

And the AUC(0-t) [2, 3]?
The AUC(0-t) was 63700 ng·h/mL.

And the Cmax [2, 3]?
Its Cmax is 13400 ng/mL.

What about the half-life [2, 3] of the same compound?
Its half-life is 5.65 h.

What about the MRT inf ([2]; male, mouse, ICR mice, oral, 30 mg/kg, plasma, read-out: MRT0-∞) of the same compound?
The MRT inf was 8.01 h.

What about the “plasma exposure relative to Bempedoic acid” value ([2]; same oral dose) of the same compound?
Its value is “more than 4 times”.

What about the “accumulation of hepatic lipids” value (crab-eating monkeys) of the same compound?
The value was “significantly reduce”.

What about the “activity score of non-alcoholic steatohepatopathy (NAS)” value (crab-eating monkeys) of the same compound?
The value was “significantly reduced”.

And the occurrence of fibrosis (crab-eating monkeys)?
The occurrence of fibrosis was “significantly reduce”.

What about the occurrence of inflammation (crab-eating monkeys) of the same compound?
The occurrence of inflammation was “significantly reduce”.
